Several values for one entry are separate records, joined by “and”; a condition that tells them apart may be missing. Identical values can stand only once. Entries after “also recorded” stand apart in the source; their conditions may differ. Like-named read-outs stand apart in the source and are kept apart here.
Legend:
human 5-HT1A receptor = biological target: T1, human 5-HT1A receptor (Homo sapiens, UniProt P08908); assay: GPCR radioligand binding assay, [3H]-8-OH-DPAT displacement, HEK293 membranes
T1 construct: expressed in transfected cells
T1 sequence (P08908 1-422): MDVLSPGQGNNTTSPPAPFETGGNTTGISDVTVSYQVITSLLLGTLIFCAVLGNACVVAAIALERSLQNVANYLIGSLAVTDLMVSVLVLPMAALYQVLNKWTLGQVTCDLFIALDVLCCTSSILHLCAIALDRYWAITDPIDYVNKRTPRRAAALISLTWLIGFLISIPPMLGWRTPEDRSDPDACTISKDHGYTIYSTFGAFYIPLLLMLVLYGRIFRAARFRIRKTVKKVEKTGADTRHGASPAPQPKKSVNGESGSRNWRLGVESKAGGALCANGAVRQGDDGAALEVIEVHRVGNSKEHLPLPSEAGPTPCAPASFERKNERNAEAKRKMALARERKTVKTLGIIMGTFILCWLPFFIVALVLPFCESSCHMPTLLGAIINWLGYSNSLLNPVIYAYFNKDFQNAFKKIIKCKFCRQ

human 5-HT6 receptor = biological target: T2, human 5-HT6 receptor (Homo sapiens, UniProt P50406); assay: GPCR radioligand binding assay, [3H]-LSD displacement, HEK293 membranes
T2 construct: expressed in transfected cells

human 5-HT7b receptor = biological target: T3, human 5-HT7b receptor (Homo sapiens, UniProt P34969); assay: GPCR radioligand binding assay, [3H]-5-CT displacement, HEK293 membranes
T3 construct: expressed in transfected cells

human thrombin = biological target: T4, human thrombin (Homo sapiens, UniProt P00734); assay: Protease inhibitory assay, chromogenic substrate S-2238; type: biochemical; settings: plate layout, label = plate position; Cheng-Prusoff, Km 2.6 µM; read-out: Thrombin Ki
T4 construct: human thrombin; purchased Sigma-Aldrich

[1] = biological target: T5, SARS-CoV-2 NSP3 macrodomain (Severe acute respiratory syndrome coronavirus 2, UniProt P0DTD1); assay: NSP3 macrodomain HTRF assay, displacement of ADP-ribose-conjugated biotin peptide; type: binding
SARS-CoV-2 = assay: microbe, parasite or virus in culture; type: cell-based
[2] = biological target: T5, SARS-CoV-2 NSP3 macrodomain; assay: X-ray fragment screening (XChem, crystal soaking); type: binding
recombinant SETD2 = biological target: T6, recombinant SETD2 (Homo sapiens, UniProt Q9BYW2); assay: SETD2 Chemiluminescence assay (H3K36 tri-methylation); type: biochemical; settings: for SETD2 signal, blank corrected, normalized to positive ctrl: internal control
T6 construct: purchased BPS Bioscience 52060
T6 sequence (Q9BYW2 1418-1714 limits assumed): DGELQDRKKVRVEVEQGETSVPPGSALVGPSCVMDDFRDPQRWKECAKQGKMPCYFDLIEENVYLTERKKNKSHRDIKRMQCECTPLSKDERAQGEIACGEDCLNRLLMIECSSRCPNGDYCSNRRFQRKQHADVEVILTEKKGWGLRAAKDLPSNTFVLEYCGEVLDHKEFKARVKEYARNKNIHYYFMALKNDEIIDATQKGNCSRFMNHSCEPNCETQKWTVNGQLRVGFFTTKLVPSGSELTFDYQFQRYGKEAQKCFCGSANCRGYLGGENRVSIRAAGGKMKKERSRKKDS

SETD2 = settings: cited from earlier work
COVID-19 = test system: COVID-19; design: method as in PMID 33264556; settings: trial discontinued in July 2020; cited from earlier work

T3 sequence (P34969 1-432): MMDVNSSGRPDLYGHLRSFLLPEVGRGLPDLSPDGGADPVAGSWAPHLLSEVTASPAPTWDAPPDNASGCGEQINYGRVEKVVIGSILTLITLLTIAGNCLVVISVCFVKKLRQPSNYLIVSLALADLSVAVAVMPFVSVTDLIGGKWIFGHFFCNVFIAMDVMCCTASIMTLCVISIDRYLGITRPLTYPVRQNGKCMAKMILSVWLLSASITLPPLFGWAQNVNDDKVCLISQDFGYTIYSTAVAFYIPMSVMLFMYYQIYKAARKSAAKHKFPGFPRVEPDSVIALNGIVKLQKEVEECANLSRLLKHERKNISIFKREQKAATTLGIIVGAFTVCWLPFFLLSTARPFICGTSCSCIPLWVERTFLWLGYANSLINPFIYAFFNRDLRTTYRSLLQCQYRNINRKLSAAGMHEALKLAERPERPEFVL
T2 sequence (P50406 whole entry): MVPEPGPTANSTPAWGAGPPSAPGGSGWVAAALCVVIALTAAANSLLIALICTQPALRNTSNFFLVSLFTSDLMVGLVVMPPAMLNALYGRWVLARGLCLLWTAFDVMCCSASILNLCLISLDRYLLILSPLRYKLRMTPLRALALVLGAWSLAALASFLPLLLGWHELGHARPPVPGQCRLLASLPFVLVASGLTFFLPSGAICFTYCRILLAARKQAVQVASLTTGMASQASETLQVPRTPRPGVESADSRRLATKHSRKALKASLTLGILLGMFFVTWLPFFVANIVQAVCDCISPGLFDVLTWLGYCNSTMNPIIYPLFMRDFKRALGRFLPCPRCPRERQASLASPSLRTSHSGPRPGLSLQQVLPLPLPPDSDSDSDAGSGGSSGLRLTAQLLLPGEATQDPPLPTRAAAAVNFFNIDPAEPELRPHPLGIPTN

Molecule: NC(=O)N1CCC(C(=O)O)CC1 [SX048]
- inhibition at 10 µM (human 5-HT1A receptor; 10 µM, read-out: 5-HT1A % Inhibition by plate position): 0.751%
- inhibition at 10 µM (human 5-HT1A receptor; 5-HT1A, average of exp_1 and exp_2, read-out: %inh 5-HT1A average): 0.751%
- inhibition at 10 µM (human 5-HT1A receptor; 5-HT1A, average, values below 0 and above 100% were set as 0 and 100, read-out: %inh 5-HT1A corrected*): 0.751%
- inhibition at 10 µM (human 5-HT1A receptor; 5-HT1A, replicate exp_1, read-out: %inh 5-HT1A exp_1): 1.5%
- inhibition at 10 µM (human 5-HT1A receptor; 5-HT1A, replicate exp_2, read-out: %inh 5-HT1A exp_2): 0%
- inhibition at 10 µM (human 5-HT6 receptor; 10 µM, read-out: 5-HT6 % Inhibition by plate position): 47%
- inhibition at 10 µM (human 5-HT6 receptor; 5-HT6, average of exp_1 and exp_2, read-out: %inh 5-HT6 average): 47%
- inhibition at 10 µM (human 5-HT6 receptor; 5-HT6, average, values below 0 and above 100% were set as 0 and 100, read-out: %inh 5-HT6 corrected*): 47%
- inhibition at 10 µM (human 5-HT6 receptor; 5-HT6, replicate exp_1, read-out: %inh 5-HT6 exp_1): 56%
- inhibition at 10 µM (human 5-HT6 receptor; 5-HT6, replicate exp_2, read-out: %inh 5-HT6 exp_2): 38%
- inhibition at 10 µM (human 5-HT7b receptor; 10 µM, read-out: 5-HT7 % Inhibition by plate position): 0%
- inhibition at 10 µM (human 5-HT7b receptor; 5-HT7, average of exp_1 and exp_2, read-out: %inh 5-HT7 average): -6.41%
- inhibition at 10 µM (human 5-HT7b receptor; 5-HT7, average, values below 0 and above 100% were set as 0 and 100, read-out: %inh 5-HT7 corrected*): 0%
- inhibition at 10 µM (human 5-HT7b receptor; 5-HT7, replicate exp_1, read-out: %inh 5-HT7 exp_1): -8%
- inhibition at 10 µM (human 5-HT7b receptor; 5-HT7, replicate exp_2, read-out: %inh 5-HT7 exp_2): -4.44%
- Ki (human thrombin): 0.301 mM
- % SARS-CoV-2 macrodomain inhibition ([1]; 98 µM, replicates): 4.2%
- inhibition at 98 µM ([1]; 98 µM, replicates): 5.1%
- % SARS-CoV-2 macrodomain inhibition ([1]; 195 µM, replicates): 3.7% and 10.3%
- % SARS-CoV-2 macrodomain inhibition ([1]; 391 µM, replicates): 5.0% and 0.65%
- % SARS-CoV-2 macrodomain inhibition ([1]; 781 µM, replicates): 4.2% and 0.6%
- % SARS-CoV-2 macrodomain inhibition ([1]; 1563 µM, replicates): 5.8%
- inhibition at 1563 µM ([1]; 1563 µM, replicates): 6.6%
- % SARS-CoV-2 macrodomain inhibition ([1]; 3125 µM, replicates): 6.5% and 15.4%
- % SARS-CoV-2 macrodomain inhibition ([1]; 6250 µM, replicates): 80.4%
- inhibition at 6250 µM ([1]; 6250 µM, replicates): 84.7%
- % SARS-CoV-2 macrodomain inhibition ([1]; 12500 µM, replicates): 102.4%
- inhibition at 12500 µM ([1]; 12500 µM, replicates): 102%
- NSP3 inhibition (in words) ([1]; HTRF assay, at 5 mM concentration): significant
- IC50 ([1]; IC50, SARS-CoV-2 macrodomain inhibition): 5.54 mM
- IC50 ([1]; NSP3 IC50, HTRF assay): 5.5 mM
- viral copy numbers normalized to the control (untreated infected cells) (SARS-CoV-2; 10 uM, replicates): 1.6898 and 2.197 and 1.352
- Inhibition (%) of viral copy numbers (SARS-CoV-2; 100 uM, replicates): 8.992%
- viral copy numbers normalized to the control (untreated infected cells) (SARS-CoV-2; 100 uM, replicates): 1.075 and 1.992 and 0.9101
- Inhibition (%) of viral copy numbers (SARS-CoV-2; 250 uM, replicates): 15.88% and 50.18% and 14.44%
- viral copy numbers normalized to the control (untreated infected cells) (SARS-CoV-2; 250 uM, replicates): 0.8412 and 0.4982 and 0.8556
- Inhibition (%) of viral copy numbers (SARS-CoV-2; 500 uM, replicates): 81.12% and 43.68% and 14.44%
- viral copy numbers normalized to the control (untreated infected cells) (SARS-CoV-2; 500 uM, replicates): 0.1888 and 0.5632 and 0.8556
- Inhibition (%) of viral copy numbers (SARS-CoV-2; 750 uM, replicates): 51.99% and 82.49% and 35.02%
- viral copy numbers normalized to the control (untreated infected cells) (SARS-CoV-2; 750 uM, replicates): 0.4801 and 0.1751 and 0.6498
- Inhibition (%) of viral copy numbers (SARS-CoV-2; 1000 uM, replicates): 41.84% and 41.07%
- viral copy numbers normalized to the control (untreated infected cells) (SARS-CoV-2; 1000 uM, replicates): 0.5067 and 0.5816 and 0.5893
- inhibition at 10 µM (SARS-CoV-2; Severe acute respiratory syndrome coronavirus 2, Vero C1008, 10 uM, replicates, read-out: Inhibition (%) of viral copy numbers): 0%
- inhibition at 1000 µM (SARS-CoV-2; Severe acute respiratory syndrome coronavirus 2, Vero C1008, 1000 uM, replicates, read-out: Inhibition (%) of viral copy numbers): 49.3%
- antiviral activity in the cellular assay (in words) (SARS-CoV-2; infected Vero E6 cells): high micromolar range; also recorded: Significant antiviral activities
- X-ray screen result, binding site [2]: identified in the active site

Molecule: Nc1ncnc2c1ncn2[C@@H]1O[C@H](C[C@@H](N)CC[C@H](N)C(=O)O)[C@@H](O)[C@H]1O [Sinefungin, reference compound]
- inhibition of SETD2 activity (control, in words) (recombinant SETD2; 200 µM Sinefungin): complete inhibition
- SETD2 signal, blank corrected, normalized to positive ctrl (recombinant SETD2; 200 µM): 0.074
- SETD2 signal, blank corrected, normalized to positive ctrl (recombinant SETD2; 800 µM): 0.0136
- activity as inhibitor of SETD2 (in words) (SETD2): moderately active

Molecule: lopinavir/ritonavir
- clinical trial outcome against COVID-19 (COVID-19): ineffectiveness
